Tests used:
Assay type in all cases: cell-based
[1] = Cytotoxicity in TZM-bl cells (XTT); conditions: human, XTT, 3 days
Description: (§1) The cytotoxicity of test compounds in TZM-bl cells was also measured by the XTT method described previously^7. […] The soluble intracellular formazan was quantitated colorimetrically at 450 nm 4 h later. The percent of cytotoxicity and the CC50 values were calculated as above. (See Table 4)

[2] = tested on: HIV-1 pseudovirus pseudotyped with HXB2 Env; experiment: microbe, parasite or virus in culture; conditions: single cycle assay, TZM-bl cells infected with HIV-1 pseudovirus pseudotyped with HXB2 Env;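 further: endpoint is IC50 for inhibition of pseudovirus infection of TZM-bl cells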
TZM-bl cells = experiment: Cytotoxicity in TZM-bl cells (XTT); conditions: XTT, 3 days
Description: as §1

[3] = Human immunodeficiency virus 1, HXB2, TZM-bl

## N=C(N)NCCCC(NC(=O)c1ccc(-c2ccccc2)[nH]1)C(=O)NCCO (centres unmarked) [Compound 5]
[1]
  CC50 at 3 days: > 47 µM

## COc1ccc(-c2ccc(C(=O)NC(CN)c3ncc(CO)s3)[nH]2)cc1OC (single isomer, unassigned) [Compound 129]
[2]; [3]
  IC50: > 74.5 µM
[1]
  CC50 at 3 days: > 74.5 µM

## Cc1ccc(-c2ccc(C(=O)NC(c3nc(C)c(CO)s3)C3CCCCN3)[nH]2)cc1F (single isomer, unassigned) [Compound 22]
[1]
  CC50 at 3 days: ≥ 36 µM

## CNCC(NC(=O)c1ccc(-c2ccc(Cl)c(F)c2)[nH]1)c1nc(C)c(CO)s1 (single isomer, unassigned) [Compound 56]
[2]
  IC50: 1.6 ± 0.6 µM
[1]
  CC50 at 3 days: ~21 µM

## Cc1ccc(-c2ccc(C(=O)NC(CCN(C)C)c3nc(C)c(CO)s3)[nH]2)cc1F (single isomer, unassigned) [Compound 72]
[1]
  CC50 at 3 days: 36.4 ± 1 µM

## Cc1nc(C(CNC(=N)N)NC(=O)c2ccc(-c3ccc(Cl)c(F)c3)[nH]2)sc1CO (single isomer, unassigned) [Compound 48]
[1]
  CC50 at 3 days: > 36 µM

## Cc1nc(C(CN(C)C)NC(=O)c2ccc(-c3ccc(Cl)cc3)[nH]2)sc1CO (single isomer, unassigned) [Compound 62]
[2]; [3]
  IC50: 22 ± 3.8 µM
[1]
  CC50 at 3 days: > 40 µM

## NS(=O)(=O)c1ccc(CCNC(=O)c2ccc(-c3ccc(Cl)cc3)[nH]2)cc1 [Compound 14]
[1]
  CC50 at 3 days: > 50 µM

## Cc1nc(C(NC(=O)c2ccc(-c3ccc(Cl)c(F)c3)[nH]2)C2CCCCN2)sc1CO (single isomer, unassigned) [Compound 20]
[1]
  CC50 at 3 days: 15.2 ± 0.2 µM

## Cc1nc(C(NC(=O)c2ccc(-c3ccc(Cl)cc3)[nH]2)C(C)(C)N)sc1CO (single isomer, unassigned) [Compound 109]
[2]; [3]
  IC50: 1.4 ± 0.5 µM
[1]
  CC50 at 3 days: 22.1 ± 1.8 µM

## Cc1ccc(-c2ccc(C(=O)NC(c3nc(C)c(CO)s3)C(C)(C)N)[nH]2)cc1F (single isomer, unassigned) [Compound 113]
[2]
  IC50: 1.1 ± 0.1 µM
[1]
  CC50 at 3 days: 17.1 ± 0.6 µM

## Cc1nc(C(NC(=O)c2ccc(-c3ccc(Cl)c(F)c3)[nH]2)C(C)(C)N)sc1CO (single isomer, unassigned) [Compound 111]
[2]; [3]
  IC50: 0.44 ± 0.03 µM
[1]
  CC50 at 3 days: 14 ± 0.4 µM

## Cc1ccc(-c2ccc(C(=O)NC(CNC(=N)N)c3nc(C)c(CO)s3)[nH]2)cc1F (single isomer, unassigned) [Compound 49]
[1]
  CC50 at 3 days: > 37 µM

## Cc1nc(C(CN)NC(=O)c2ccc(-c3ccc(Cl)cc3)[nH]2)sc1CO (single isomer, unassigned) [Compound 39]
[1]
  CC50 at 3 days: ≥ 34 µM

## Cc1cc(C(=O)NC(CN)c2nc(C)c(CO)s2)[nH]c1-c1ccc(Cl)cc1 (single isomer, unassigned) [Compound 97]
[1]
  CC50 at 3 days: 5.2 ± 0.3 µM

## Cc1nc(C(CN)NC(=O)c2ncc(-c3ccc(Cl)cc3)[nH]2)sc1CO (single isomer, unassigned) [Compound 95]
[1]
  CC50 at 3 days: > 51 µM

## Cc1nc(C(NC(=O)c2ccc(-c3ccc(Cl)cc3)[nH]2)C2CCCCN2)sc1CCO (single isomer, unassigned) [Compound 28]
[1]
  CC50 at 3 days: 17.3 ± 0.1 µM

## Cc1nc(C(NC(=O)c2ccc(-c3ccc(Cl)c(F)c3)[nH]2)C2CCCCN2)[nH]c1CO (single isomer, unassigned) [Compound 35]
[1]
  CC50 at 3 days: 25 ± 0.5 µM

## Cc1nc(C(CN)NC(=O)c2cnc(-c3ccc(Cl)cc3)[nH]2)sc1CO (single isomer, unassigned) [Compound 93]
[1]
  CC50 at 3 days: > 51 µM

## NCC(NC(=O)c1ccc(-c2ccc(Cl)c(F)c2)[nH]1)c1ncc(CO)s1 (single isomer, unassigned) [Compound 101]
[2]
  IC50: 0.57 ± 0.01 µM
[1]
  CC50 at 3 days: 30.8 ± 1.9 µM

## Cc1nc(C(CCN(C)C)NC(=O)c2ccc(-c3ccc(Cl)cc3)[nH]2)sc1CO (single isomer, unassigned) [Compound 76]
[1]
  CC50 at 3 days: 21.7 ± 1 µM

## Cc1nc(C(CCN(C)C)NC(=O)c2ccc(-c3ccc(Cl)c(F)c3)[nH]2)sc1CO (single isomer, unassigned) [Compound 74]
[2]
  IC50: 4.6 ± 0.2 µM
[1]
  CC50 at 3 days: 22 ± 1 µM

## Cc1nc(C(NC(=O)c2ccc(-c3ccc(Cl)cc3)[nH]2)C2CCCCN2)[nH]c1CO (single isomer, unassigned) [Compound 33]
[1]
  CC50 at 3 days: 28 ± 0.5 µM

## N=C(N)NCCCC(NC(=O)c1ccc(-c2ccc(Cl)cc2)[nH]1)C(=O)NCCO (centres unmarked) [Compound 4]
[1]
  CC50 at 3 days: > 44 µM

## N=C(N)NCCCC(NC(=O)c1ccc(-c2ccc(Cl)cc2)[nH]1)C(=O)NN1CCOCC1 (centres unmarked) [Compound 9]
[1]
  CC50 at 3 days: > 40 µM

## Cc1nc(C(CNC(=N)N)NC(=O)c2ccc(-c3ccc(Cl)cc3)[nH]2)sc1CO (single isomer, unassigned) [Compound 45]
[1]
  CC50 at 3 days: > 37 µM

## NCCNC(=O)c1ccc(-c2ccc(Cl)c(F)c2)[nH]1 [Compound 71]
[1]
  CC50 at 3 days: 19.4 ± 0.9 µM

## Cc1n[nH]c(C)c1CNC(=O)c1ccc(-c2ccc(Cl)cc2)[nH]1 [Compound 11]
[1]
  CC50 at 3 days: ~60 µM

## Cc1ccc(-c2ccc(C(=O)NC(c3nc(C)c(CCO)s3)C3CCCCN3)[nH]2)cc1F (single isomer, unassigned) [Compound 24]
[1]
  CC50 at 3 days: 28.8 ± 1 µM

## Cc1nc(C(CN)NC(=O)c2ccc(-c3ccc(Cl)c(F)c3)[nH]2)sc1CO (single isomer, unassigned) [Compound 51]
[1]
  CC50 at 3 days: ~28 µM

## O=C(NC(c1ccccc1)c1ccc[nH]1)c1ccc(-c2ccc(Cl)cc2)[nH]1 (centres unmarked) [Compound 1]
[1]
  CC50 at 3 days: > 53 µM

## NCC(NC(=O)c1ccc(-c2cc(F)c(Cl)c(F)c2)[nH]1)c1ncc(CO)s1 (single isomer, unassigned) [Compound 119]
[1]
  CC50 at 3 days: 18 ± 0.5 µM

## Cc1ccc(-c2ccc(C(=O)NC(c3nc(C)c(CO)[nH]3)C3CCCCN3)[nH]2)cc1F (single isomer, unassigned) [Compound 37]
[1]
  CC50 at 3 days: 30 ± 0.3 µM

## Cc1ccc(-c2ccc(C(=O)NC(c3nc(C)c(CCCO)s3)C3CCCCN3)[nH]2)cc1F (single isomer, unassigned) [Compound 30]
[1]
  CC50 at 3 days: 17 ± 0.7 µM

## Cc1nc(C(CCN)NC(=O)c2ccc(-c3ccc(Cl)c(F)c3)[nH]2)sc1CO (single isomer, unassigned) [Compound 86]
[1]
  CC50 at 3 days: 22.9 ± 0.6 µM

## CC(=O)NCC(NC(=O)c1ccc(-c2ccc(Cl)c(F)c2)[nH]1)c1nc(C)c(COC(C)=O)s1 (single isomer, unassigned) [Compound 66]
[1]
  CC50 at 3 days: > 40 µM

## CNCC(NC(=O)c1ccc(-c2ccc(C)c(F)c2)[nH]1)c1ncc(CO)s1 (single isomer, unassigned) [Compound 118]
[2]
  IC50: 2 ± 0.3 µM
[1]
  CC50 at 3 days: 21 ± 0.8 µM

## Cc1ccc(-c2ccc(C(=O)NC(c3ncc(CO)s3)C(C)(C)N)[nH]2)cc1F (single isomer, unassigned) [Compound 125]
[2]; [3]
  IC50: 0.63 ± 0.03 µM
[1]
  CC50 at 3 days: 32.5 ± 0.3 µM

## N=C(N)NCCCC(NC(=O)c1ccc(-c2ccccc2)[nH]1)C(=O)NN1CCOCC1 (centres unmarked) [Compound 10]
[1]
  CC50 at 3 days: > 43 µM

## Cc1nc(C(NC(=O)c2ccc(-c3ccc(Cl)c(F)c3)[nH]2)C2CCCCN2)sc1CCCO (single isomer, unassigned) [Compound 31]
[1]
  CC50 at 3 days: 8.2 ± 0.3 µM

## Cc1ccc(-c2ccc(C(=O)NC(CN)c3nc(C)c(CO)s3)[nH]2)cc1F (single isomer, unassigned) [Compound 43]
[1]
  CC50 at 3 days: ≥ 34 µM

## Nc1nc(CNC(=O)c2ccc(-c3ccc(Cl)cc3)[nH]2)n[nH]1 [Compound 2]
[1]
  CC50 at 3 days: > 63 µM

## CCN(CC)Cc1ccc(OC)c(CNC(=O)c2ccc(-c3ccc(Cl)cc3)[nH]2)c1 [Compound 13]
[1]
  CC50 at 3 days: 14.2 ± 1 µM

## Cc1nc(C(NC(=O)c2ccc(-c3ccc(Cl)c(F)c3)[nH]2)C2CCCCN2)sc1CCO (single isomer, unassigned) [Compound 26]
[1]
  CC50 at 3 days: 16.1 ± 0.2 µM

## Cc1nccn1Cc1ccc(CNC(=O)c2ccc(-c3ccc(Cl)cc3)[nH]2)o1 [Compound 12]
[1]
  CC50 at 3 days: 22 ± 0.4 µM

## CN1CCN(NC(=O)C(CCCNC(=N)N)NC(=O)c2ccc(-c3ccc(Cl)cc3)[nH]2)CC1 (centres unmarked) [Compound 8]
[1]
  CC50 at 3 days: > 42 µM

## Cc1nc(C(CCN(C)C)NC(=O)c2ccc(-c3ccc(Cl)cc3)[nH]2)sc1CO (single isomer, unassigned) [Compound 77]
[2]
  IC50: 10.4 ± 2 µM
TZM-bl cells
  CC50: 40.2 ± 3 µM

## CS(=O)(=O)NCCNC(=O)C(CCCNC(=N)N)NC(=O)c1ccc(-c2ccccc2)[nH]1 (centres unmarked) [Compound 7]
[1]
  CC50 at 3 days: > 43 µM

## CNCC(NC(=O)c1ccc(-c2ccc(Cl)cc2)[nH]1)c1nc(C)c(CO)s1 (single isomer, unassigned) [Compound 58]
[1]
  CC50 at 3 days: ~37 µM

## Cc1nc(C(NC(=O)c2ccc(-c3ccc(Cl)cc3)[nH]2)C2CCCCN2)sc1CCCO (centres unmarked) [Compound 32]
[1]
  CC50 at 3 days: 13.7 ± 1 µM

## Cc1nc(C(NC(=O)c2ccc(-c3ccc(Cl)cc3)[nH]2)C(C)(C)N)sc1CO (single isomer, unassigned) [Compound 110]
[2]
  IC50: 1.1 ± 0.2 µM
TZM-bl cells
  CC50: 20.6 ± 1.2 µM

## CS(=O)(=O)NCCNC(=O)C(CCCNC(=N)N)NC(=O)c1ccc(-c2ccc(Cl)cc2)[nH]1 (centres unmarked) [Compound 6]
[1]
  CC50 at 3 days: > 37 µM

## Cc1nc(C(NC(=O)c2ccc(-c3ccc(Cl)c(F)c3)[nH]2)C2CCCCN2)sc1CO (single isomer, unassigned) [Compound 21]
[2]
  IC50: 3.2 ± 0.5 µM
TZM-bl cells
  CC50: 17.4 ± 1.6 µM

## NCC(NC(=O)c1ccc(-c2ccc(Cl)c(F)c2)[nH]1)c1ncc(CO)s1 (single isomer, unassigned) [Compound 102]
[2]
  IC50: 0.77 ± 0.04 µM
TZM-bl cells
  CC50: 31.8 ± 0.4 µM

## Cc1nc(C(CN)NC(=O)c2ccc(-c3ccc(Cl)cc3)n2C)sc1CO (single isomer, unassigned) [Compound 92]
[2]
  IC50: 25.8 ± 1.1 µM
TZM-bl cells
  CC50: 36.7 ± 0.4 µM

## Cc1nc(C(CN(C)C)NC(=O)c2ccc(-c3ccc(Cl)c(F)c3)[nH]2)sc1CO (single isomer, unassigned) [Compound 67]
[1]
  CC50 at 3 days: ~29 µM

## N=C(N)Nc1ccc(CC(NC(=O)c2ccc(-c3ccc(Cl)cc3)[nH]2)C(=O)N2CCOCC2)cc1 (centres unmarked) [Compound 3]
[1]
  CC50 at 3 days: > 36 µM

## Cc1ccc(-c2ccc(C(=O)NC(CN(C)C)c3nc(C)c(CO)s3)[nH]2)cc1F (single isomer, unassigned) [Compound 65]
[2]
  IC50: 6.3 ± 1.8 µM
TZM-bl cells
  CC50: > 40 µM

— patent US11059808B2, “Substituted phenylpyrrolecarboxamides with therapeutic activity in HIV” (New York Blood Center, Inc., priority 2014, dated 2021)
